# Results published in patent publication US20080221150A1, “Prevention of Neurodegeneration by Macrolide Antibiotics” (priority 2005, published 2008).
# Entries after “also recorded” stand apart in the source; their conditions may differ.
# Assays:
# [1] = tested on: cerebellar granule neurons (CGNs); test: Cell viability via Calcein AM fluorogenic conversion assay; settings: for chloroquine-induced decrease in viability / cell death: 1 nM macrolide + 20 μM chloroquine; for effect on staurosporine-induced decrease in viability: 1 nM bafilomycin A1 + 0.1 μM staurosporine
# Procedure: (§1) Cerebellar granule neurons (CGNs) were isolated from postnatal day 7 mice as previously described^40. CGNs were plated in poly-L-lysine coated plates at a density of 1250 cells per mm^2. 48 well plates were used for viability and caspase activity assays; 100 mm dishes were used for western blot analysis; and 4 well […] chamber slides (Agene) were used for analysis of vacuolar acidification.
# (§2) CGNs were treated in vitro on day 4. […] Separate cultures of CGNs were also treated for 24 h with staurosporine (0.1 μM), in the presence or absence of BafA1 (1-10 nM final).
# (§3) Cell viability (via Calcein AM fluorogenic conversion assay; Molecular Probes, Eugene, Oreg.) and caspase-3-like activity (via fluorogenic DEVD cleavage assay) were performed as previously described 40 and were expressed relative to untreated controls.
# in vitro = settings: mouse
# Procedure: as §1, §2, §3
# cleaved caspase-3 = test: Western blot of cleaved caspase-3 in CGN lysates; type: cell-based, mice
# Procedure: as §1, §2
# Cells were detached from their substrate by incubation for 5 min at 37° C. with Accutase (Innovative Cell Technologies, San Diego, Calif.). Conditioned media and cells were centrifuged (700×g, 5 min, 4° C.). The supernatant was aspirated and re-suspended with 1 ml ice-cold PBS, then centrifuged again (700×g, 5 min, 4° C.). The resultant pellet was re-suspended in lysis buffer containing 25 mM HEPES, 5 mM EDTA, 5 mM MgCl2, 1% SDS, 1% Triton X-100, 1 mM PMSF, 1% protease inhibitor cocktail and 1% phosphatase inhibitor cocktail (Sigma). Cell lysates were sonicated to shear DNA and then centrifuged (10,000 rpm, 10 min, 4° C.), and the resultant supernatant (cleared whole cell lysates) was transferred to a fresh tube. Protein levels were determined subsequently via BCA assay (Pierce). Equal amounts of protein were resolved via SDS-PAGE and transferred to PVDF. After transfer blots were cut in half at approximately 37 kDa. […] Blots were blocked for 1 h, RT (5% milk), followed by overnight incubation with primary antibody. Blots were washed with 1×TBS containing 0.1% Tween 20, then incubated with secondary antibody (goat anti-rabbit IgG, Biorad) for 1 h, RT and subsequently washed. Signal was detected using Supersignal chemiluminescence (Pierce). […] Blots were scanned for densitometric analysis using Biorad Quantity One® software.
# LC3 = test: Western blot of LC3 processing (LC3-I, LC3-II) in CGN lysates; type: cell-based, mice
# Procedure: as §1, §2
# Cells were detached from their substrate by incubation for 5 min at 37° C. with Accutase (Innovative Cell Technologies, San Diego, Calif.). Conditioned media and cells were centrifuged (700×g, 5 min, 4° C.). The supernatant was aspirated and re-suspended with 1 ml ice-cold PBS, then centrifuged again (700×g, 5 min, 4° C.). The resultant pellet was re-suspended in lysis buffer containing 25 mM HEPES, 5 mM EDTA, 5 mM MgCl2, 1% SDS, 1% Triton X-100, 1 mM PMSF, 1% protease inhibitor cocktail and 1% phosphatase inhibitor cocktail (Sigma). Cell lysates were sonicated to shear DNA and then centrifuged (10,000 rpm, 10 min, 4° C.), and the resultant supernatant (cleared whole cell lysates) was transferred to a fresh tube. Protein levels were determined subsequently via BCA assay (Pierce). Equal amounts of protein were resolved via SDS-PAGE and transferred to PVDF. After transfer blots were cut in half at approximately 37 kDa. […] Blots were blocked for 1 h, RT (5% milk), followed by overnight incubation with primary antibody. Blots were washed with 1×TBS containing 0.1% Tween 20, then incubated with secondary antibody (goat anti-rabbit IgG, Biorad) for 1 h, RT and subsequently washed. Signal was detected using Supersignal chemiluminescence (Pierce). After detection of cleaved caspase-3, the bottom blot was stripped using Restore Western Blot stripping buffer (Pierce) then probed with rabbit anti-LC3 (provided by Uchiyama laboratory), using the same western blot protocol as described above. Blots were scanned for densitometric analysis using Biorad Quantity One® software.
# p18 Bax = test: Western blot of p18 Bax in CGNs; type: cell-based, mice
# Procedure: as §1
# CGNs were treated in vitro on day 4. […]
# Cells were detached from their substrate by incubation for 5 min at 37° C. with Accutase (Innovative Cell Technologies, San Diego, Calif.). Conditioned media and cells were centrifuged (700×g, 5 min, 4° C.). The supernatant was aspirated and re-suspended with 1 ml ice-cold PBS, then centrifuged again (700×g, 5 min, 4° C.). The resultant pellet was re-suspended in lysis buffer containing 25 mM HEPES, 5 mM EDTA, 5 mM MgCl2, 1% SDS, 1% Triton X-100, 1 mM PMSF, 1% protease inhibitor cocktail and 1% phosphatase inhibitor cocktail (Sigma). Cell lysates were sonicated to shear DNA and then centrifuged (10,000 rpm, 10 min, 4° C.), and the resultant supernatant (cleared whole cell lysates) was transferred to a fresh tube. Protein levels were determined subsequently via BCA assay (Pierce). […] Signal was detected using Supersignal chemiluminescence (Pierce). […] Blots were scanned for densitometric analysis using Biorad Quantity One® software.
# acidic vesicles = test: Labeling of acidic vesicles in CGNs with Lysotracker Red (LTR); type: cell-based, mice
# Procedure: as §1, §2
# (§4) Conditioned media was removed from CGNs grown in 4 well, permanox chamber slides. LTR (0.05 μM; Molecular Probes, Eugene, Oreg.) and Calcein AM (2.5 μg/ml; Molecular Probes, Eugene, Oreg.) were prepared in Locke's Buffer and added to each well for 30 min, 37° C. After this incubation the cells were washed with Locke's Buffer and cover-slipped. Images were captured using a Carl Zeiss Axioskop microscope equipped with epifluorescence.
# Bid = test: Cleavage of Bid in CGNs; type: cell-based, mice; settings: chloroquine; data not shown
# caspase-3-like activity = test: Caspase-3-like activity via fluorogenic DEVD cleavage assay in CGNs; type: cell-based, mice
# Procedure: as §1, §2, §3
# [2] = tested on: cerebellar granule neurons (CGNs); test: Viable CGNs by viability marker calcein AM during LTR labeling; type: cell-based, mice; settings: 24 h
# Procedure: as §1, §2, §4
# vacuolar ATPase = settings: cited from earlier work
# [3] = 10 nM bafilomycin A1, 24 hours, Bax deficiency
# [4] = all concentrations of bafilomycin A1 tested + 20 μM chloroquine, 24 hours
# [5] = bafilomycin A1 by itself, 24 hours
# [6] = co-addition with 20 μM chloroquine, 24 hours
# [7] = 10 nM bafilomycin A1 by itself, 24 hours
# [8] = bafilomycin A1 0.3-10 nM + 20 μM chloroquine, 24 hours
# [9] = + chloroquine 20 μM for 24 hours, wild-type CGNs
smiles,measurement,setting,value
C/C=C/[C@H]1O[C@@](O)([C@@H](C)[C@H](O)[C@H](C)[C@H]2OC(=O)/C(OC)=C/C(C)=C/[C@@H](C)[C@@H](O)[C@@H](CC)[C@@H](O)[C@H](C)C/C(C)=C/C=C/[C@@H]2OC)C[C@@H](O)[C@@H]1C [concanamycin],chloroquine-induced decrease in viability / cell death,[1]; data not shown,inhibited chloroquine induced cell death
"CCN(CC)CCCC(C)Nc1ccnc2cc(Cl)ccc12 (stereo not shown) [chloroquine, reference compound]","viability at 8 h, 20 μM",in vitro,93%
same,"viability at 24 h, 20 μM",in vitro,24%
same,"viability at 24 h, 40 μM",in vitro,8%
same,cleaved caspase-3 temporal pattern,"cleaved caspase-3; 20 μM chloroquine, 4-48 hours",most robust at 16 hours
same,levels of LC3-I,"LC3; 20 μM chloroquine, 24-48 hours, versus control",appeared lower
same,chloroquine-induced increase in LC3-II in Bax-deficient CGNs,"LC3; 20 μM chloroquine, 24 hours, Bax deficiency",did not prevent
same,time to elevation of LC3-II,"LC3; 20 μM chloroquine, remained high through 48 hours",≤ 4 h
same,amount of p18 Bax,p18 Bax; chloroquine 20 μM for 24 hours,increased
same,LTR staining,"acidic vesicles; 20 μM chloroquine, 24 hours, surviving CGNs versus control",greater intensity of LTR staining
same,cleavage of Bid,Bid,not increased
"C[C@@H]1C[C@@H]([C@H](O)CC2CC(=O)NC(=O)C2)C(=O)[C@@H](C)C1 [cycloheximide, reference compound]",effect on magnitude of cell death induced by chloroquine,"[1]; cycloheximide 0.1-1 mg/ml with chloroquine, data not shown",did not alter
"CN[C@@H]1C[C@H]2O[C@@](C)([C@@H]1OC)n1c3ccccc3c3c4c(c5c6ccccc6n2c5c31)C(=O)NC4 [staurosporine, reference compound]","viability at 24 h, 0.1 μM",in vitro,44%
same,caspase-3-like activity,"caspase-3-like activity; 0.1 μM staurosporine, data not shown",significantly increases
CO/C1=C\C(C)=C\[C@@H](C)[C@@H](O)[C@@H](C)C/C(C)=C/C=C/[C@H](OC)[C@@H]([C@@H](C)[C@@H](O)[C@H](C)[C@@]2(O)C[C@@H](O)[C@H](C)[C@@H](C(C)C)O2)OC1=O [bafilomycin A1],effect on staurosporine-induced decrease in viability,[1]; 24 hours,not altered
same,effect on staurosporine-induced decrease in viability,"[1]; 24 hours, listed as Bafilomycin A1",did not prevent the decrease in viability
same,viability,"[1]; 1 nM bafilomycin A1 + 20 μM chloroquine, 24 hours",88%
same,viability,"[1]; 10 nM bafilomycin A1 + 0.1 μM staurosporine, 24 hours",20%
same,reduction in viability in Bax-deficient CGNs,[1]; [3],prevented
same,chloroquine-induced decrease in viability,"[1]; 10-100 nM bafilomycin A1 + 20 μM chloroquine, 24 hours",still attenuated; also recorded: inhibited chloroquine-induced death
same,chloroquine-induced decrease in viability,[1]; [4],significantly attenuated
same,concentrations that did not decrease viability,[1]; [5],≤ 1 nM
same,concentrations that significantly decreased viability,[1]; [5],≥ 10 nM
same,concentration of maximal attenuation of chloroquine-induced decrease in viability,[1]; [6],1 nM
same,reduction of chloroquine-induced caspase-3-like activity,"caspase-3-like activity; 1 nM bafilomycin A1 + 20 μM chloroquine, 24 hours, maximal",3 fold
same,increase in caspase-3-like activity in Bax-deficient CGNs,caspase-3-like activity; [3],prevented
same,concentrations that did not induce caspase-3-like activity,caspase-3-like activity; [5],≤ 1 nM
same,concentrations that increased caspase-3-like activity,caspase-3-like activity; [5],≥ 10 nM
same,concentrations that reduced chloroquine-induced increase in caspase-3-like activity,caspase-3-like activity; [6],0.3 to 1 nM
same,concentration at which increase in cleaved caspase-3 was apparent,cleaved caspase-3; [5],10 nM
same,concentrations that attenuated chloroquine-induced increase in cleaved caspase-3,"cleaved caspase-3; co-treatment with 20 μM chloroquine, 24 hours",≤ 1 nM
same,levels of LC3-II,LC3; [7],dramatic increase
same,ratio of LC3-II/LC3-I,LC3; [7],increase
same,ratio of LC3-II to LC3-I,LC3; [4],reduction
same,chloroquine-induced levels of LC3-II,LC3; [8],did not attenuate
same,levels of LC3-I,LC3; [8],appeared to increase
same,levels of LC3-I,"LC3; bafilomycin A1 by itself, any concentration, 24 hours",did not change
same,increase in p18 Bax levels,"p18 Bax; 1 nM bafilomycin A1 with chloroquine 20 μM, 24 hours",inhibits the increase in p18 Bax levels; also recorded: dramatically attenuated
same,LTR staining,"acidic vesicles; 1 nM bafilomycin A1 + 20 μM chloroquine, 24 h, versus either alone",increase in LTR staining intensity
same,LTR staining / vacuolar acidification,"acidic vesicles; 1 nM bafilomycin A1 by itself, 24 h",did not alter the staining pattern of LTR; also recorded: did not alter vacuolar acidification
same,LTR staining / vacuolar acidification,"acidic vesicles; 10 nM bafilomycin A1, presence or absence of chloroquine, 24 h",prevented any detection of vacuolar acidification by LTR; also recorded: completely prevents LTR staining
same,numbers of viable neurons,[2]; 1 nM bafilomycin A1 + 20 μM chloroquine,increased numbers of viable neurons
same,viability by calcein AM,[2]; 1 nM bafilomycin A1 by itself,nor did it reduce viability
same,numbers of viable CGNs,"[2]; 10 nM bafilomycin A1, presence or absence of chloroquine",decreased numbers of viable CGNs
same,concentrations reported to inhibit vacuolar ATPase,vacuolar ATPase,greater than 1 nM
CO/C1=C\C(C)=C\[C@@H](C)[C@@H](O)[C@@H](C)C/C(C)=C/C=C/[C@H](OC)[C@@H]([C@@H](C)[C@@H](O)[C@H](C)[C@@]2(O)C[C@@H](OC(=O)/C=C/C(=O)NC3=C(O)CCC3=O)[C@H](C)[C@@H](C(C)C)O2)OC1=O [bafilomycin B1],chloroquine-induced decrease in viability / cell death,[1]; data not shown,inhibited chloroquine induced cell death
same,chloroquine-induced decrease in viability / cell death,"[1]; data not shown, listed as Bafilomycin B1",attenuated
"COC(=O)CC(NC(=O)OC(C)(C)C)C(=O)CF (stereo not shown) [BOC-aspartyl(Ome)-fluoromethyl ketone, reference compound]",effect on chloroquine-induced death,[1]; [9],did not attenuate
same,effect on chloroquine-induced increase in caspase-3-like activity,caspase-3-like activity; [9],significantly attenuate
